Reference: patent US6927211B2, “Method for reducing toxicity of combined chemotherapies” (Bristol-Myers Squibb Company, priority 2000, dated 2005)
Entries after “also recorded” stand apart in the source; their conditions may differ.

Columns and labels:
Type in all cases: biochemical
[1] = test system: human cardiac cytosol; test: Reconstitution of DOX metabolism and DOXol formation, plus or minus taxanes, in human cardiac cytosol; settings: for stimulation of DOXol formation (in words): [4Fe-4S]-depleted cytosol, DOX 25 μM, taxanes 1-50 μM, 4 h, FIG. 3; for doxorubicinol formation from DOX: taxane 1 μM, DOX without taxane 0.46±0.04, n=3, P<0.05
Protocol: (§1) Human myocardium is obtained from patients undergoing aorto-coronary bypass grafting. All samples were routinely disposed of by the surgeons from the lateral aspect of excluded right atrium during cannulation procedures for cardio-pulmonary by-pass. After storage at −80° C., pools of 15-20 samples are processed for cytosol preparation by sequential homogenization, ultracentrifugation and overnight 65% ammonium sulfate precipitation of 105,000 g supernatants. Next, cytosol is dialyzed against 100 mM Tris HCl-40 mM KCl, pH 8.9, diluted to 3 mg protein/ml with the same buffer, and incubated for 15 minutes at room temperature with 100 mM dithiothreitol to promote non-denaturing disassembly of the [4Fe-4S] cluster of cytoplasmic aconitase. This treatment is necessary as reactions of DOXol with [4Fe-4S] clusters would convert this metabolite back to DOX. Sizable amounts of DOXol would therefore go undetected if they reacted with [4Fe-4S] clusters prior to their assay. Unreacted dithiothreitol was eventually removed by sequential gel filtration on (1.5×10 cm) Sepharose 6B columns, protein reprecipitation with 65% ammonium sulfate, and extensive dialysis against 0.3 M NaCl, pH 7.0. Doxorubicin metabolism was reconstituted in 0.5 ml incubations containing cytosol (0.15 mg protein), NADPH (100 μM) and DOX (25 μM), in 0.3 M NaCl (pH 7.0) 37° C. Where indicated ethanol-dissolved taxanes (1-50 μM) were included. Aliquots of taxane-free ethanol (5 μl) were included as appropriate to adjust the final volume to 10 μl in all incubations. After 4 h DOX and DOXol were extracted with 2 ml of CHCl3/CH3OH (1:1) and separated by previously validated two-dimensional TLC on (20×20 cm) […] F524 Silica Gel Plates, using CHCl3/CH3OH/CH3COOH/H2O (80:20:14:6) as mobile phase in either dimension. Doxorubicinol was identified by cochromatography with (S)-DOXol from Streptomyces peucetius or (S) (R)-DOXol purified after NaBH4 reduction of DOX. Where indicated incubations were prepared by replacing DOX with DOX aglycone and by measuring formation of DOXol aglycone. The latter was separated from DOX aglycone by using CHCl3/CH3OH/CH3COOH (100:2:5) and CH3COOC2H5—CH3CH2OH—CH3COOH—H2O (80:10:5:5) in the first and second dimension, respectively. DOX aglycone was purified after thermoacid hydrolysis of DOX.

[2] = test system: human cardiac cytosol; test: Conversion of DOX aglycone into DOXol aglycone, plus or minus taxanes, in human cardiac cytosol; settings: for stimulation of conversion of DOX aglycone into DOXol aglycone (in words): human cardiac cytosol, FIG. 4; for doxorubicinolone formation from doxorubicinone: taxane 1 μM, without taxane 0.8±0.1, n=3, P<0.05
Protocol: as §1

[3] = test system: human cardiac microsomes; test: NADPH oxidation by deoxycholate-solubilized human heart microsomes incubated with DOX, plus or minus taxanes; settings: 10 μM DOX, 1-10 μM taxane; FIG. 5
Protocol: (§2) 105,000 g pellets from human myocardium homogenates are solubilized with deoxycolate and reconstituted at the final concentration of 0.025 mg prot/ml with 10 μM DOX, 1-10 μM taxane, 0.1 mM NADPH, in 0.3 M NaCl, pH 7.0, 37° C.
(§3) Electron flow from NADPH cytochrome P-450 reductase to the quinone moiety of DOX is detected by monitoring NADPH oxidation. Redox coupling of the semiquinone with oxygen is detected by monitoring formation of the superoxide anion radical with the superoxide dismutase-inhibitable reduction of cytochrome c (25 μM). These assays are performed in a Hewlett Packard 8453A UV/VIS/NIR spectrometer equipped with computer-assisted corrections for scatter and turbidity.

[4] = test system: human cardiac microsomes; test: Superoxide anion formation (SOD-inhibitable cytochrome c reduction) by deoxycholate-solubilized human heart microsomes with DOX, plus or minus taxanes; settings: for increase of DOX-dependent superoxide anion formation (in words): 10 μM taxane with DOX
Protocol: as §2, §3

Row | SMILES | stimulation of DOXol formation (in words) [1] | doxorubicinol formation from DOX [1] [nmol/mg prot./4h] | stimulation of conversion of DOX aglycone into DOXol aglycone (in words) [2] | doxorubicinolone formation from doxorubicinone [2] [nmol/mg prot./4h] | stimulation of NADPH oxidation in the presence of DOX (in words) [3] | increase of DOX-dependent superoxide anion formation (in words) ([4]; FIG. 6) | generation of superoxide anion radicals in microsomal fractions ([4]; taxane 10 μM, DOX without taxane 1.6±0.1, n=4-10, P<0.05) [nmol/mg prot./min] | effect of DOX on superoxide anion formation (in words) ([4]; DOX without taxane, FIG. 6)
1 | CC(=O)O[C@H]1C(=O)[C@@]2(C)[C@H]([C@H](OC(=O)c3ccccc3)[C@]3(O)C[C@H](OC(=O)[C@H](O)[C@@H](NC(=O)c4ccccc4)c4ccccc4)C(C)=C1C3(C)C)[C@]1(OC(C)=O)CO[C@@H]1C[C@@H]2O [PTX, paclitaxel] | stimulate | 1.1±0.2 | able to stimulate | 1.4±0.2 | able to stimulate | significant increase | 2.2±0.2 | –
2 | CC(=O)O[C@@]12CO[C@@H]1C[C@H](O)[C@@]1(C)C(=O)[C@H](O)C3=C(C)[C@@H](OC(=O)[C@H](O)[C@@H](NC(=O)OC(C)(C)C)c4ccccc4)C[C@@](O)([C@@H](OC(=O)c4ccccc4)[C@H]21)C3(C)C [DCT, docetaxel] | stimulate | 1.2±0.2 | able to stimulate | 1.3±0.2 | able to stimulate | significant increase | – | –
3 | COC(=O)O[C@@]12CO[C@@H]1C[C@H](O)[C@@]1(C)C(=O)[C@H](OC(C)=O)C3=C(C)[C@@H](OC(=O)[C@H](O)[C@@H](NC(=O)c4ccccc4)c4ccccc4)C[C@@](O)([C@@H](OC(=O)c4ccccc4)[C@H]21)C3(C)C [4-desacetyl-4-methylcarbonate taxol] | did not stimulate; also recorded: did not increase | – | failed to stimulate; also recorded: did not increase; also recorded: has not been found to stimulate | – | stimulated this oxidation only at the highest levels tested; also recorded: stimulated NADPH oxidation only at the highest concentration tested, although this was not statistically significant | did not increase; also recorded: did not afford any significant stimulation | – | –
4 | COc1cccc2c1C(=O)c1c(O)c3c(c(O)c1C2=O)C[C@@](O)(C(=O)CO)C[C@@H]3O[C@H]1C[C@H](N)[C@H](O)[C@H](C)O1 [DOX, doxorubicin] | – | – | – | – | – | – | – | enhances; also recorded: able to enhance
